Experimental data published in PubChem BioAssay (NCI).
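The compound was tested at five concentrations on cells cultured in 96-well plates, with a 48-hour exposure period. GI50: concentration for 50% inhibition of growth. At the TGI there is no net growth.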

Tests used:
Assay in all cases: inhibition of tumour cell growth, NCI panel, 48 h
[1] = tested on: 786-0 renal
[2] = tested on: COLO 205 colon
[3] = tested on: OVCAR-5 ovarian
[4] = tested on: ACHN renal
[5] = tested on: HL-60(TB) leukemia
[6] = tested on: SNB-75 CNS
[7] = tested on: CCRF-CEM leukemia
[8] = tested on: SF-268 CNS
[9] = tested on: SK-OV-3 ovarian
[10] = tested on: NCI-H522 lung

`Cc1ccc(S(=O)(=O)OC[C@@H]2CO2)cc1` gave a TGI [1] of over 100 µM, a TGI [2] of over 100 µM and a TGI [3] of over 100 µM. The TGI [4] was over 100 µM, the TGI [5] was over 100 µM and the TGI [6] was over 100 µM. It also gave a TGI [7] of over 100 µM.

With `c1ccc(-c2nc(-c3ccccc3SSc3ccccc3-c3nc(-c4ccccc4)nn3-c3ccccc3)n(-c3ccccc3)n2)cc1` the TGI [1] was over 100 µM, the TGI [2] was over 100 µM and the TGI [8] was over 100 µM. The TGI [3] was over 100 µM, the TGI [4] was over 100 µM and the TGI [9] was over 100 µM. The TGI [5] was over 100 µM, the TGI [6] was over 100 µM and the TGI [7] was over 100 µM.

`CCOC(=O)C(C)(C)Oc1ccc2c(-c3ccccc3)cc(=O)oc2c1` was tested, and the TGI [1] was over 100 µM, the TGI [2] was 42.7 µM and the TGI [8] was over 100 µM. The TGI [4] was over 100 µM, the TGI [5] was 63.8 µM and the TGI [6] was 56.5 µM. The TGI [7] was 63.5 µM.

For `CCn1c(C)nn2c(=O)c3ccccc3nc2c1=O`, the TGI [1] was over 100 µM, the TGI [2] was over 100 µM and the TGI [3] was over 100 µM. It also gave a TGI [4] of over 100 µM, a TGI [9] of over 100 µM and a TGI [5] of over 100 µM. For the same compound, the TGI [6] was over 100 µM and the TGI [7] was over 100 µM.

In the case of `C1=C2/CC[C@H](Sc3ccccc3)C2C2(CCCCC/1)OCCO2` (some centres not stated), the TGI [1] is reported as over 100 µM, the TGI [2] is reported as 37.8 µM and the TGI [8] is reported as over 100 µM. For the same compound, the TGI [4] was 85.9 µM, the TGI [5] was over 100 µM and the TGI [6] was 88.2 µM. It also gave a TGI [7] of over 100 µM.

In the case of `Cc1ccc(Cl)c2c(N=Nc3ccccc3[N+](=O)[O-])c(O)[nH]c12`, the TGI [1] is reported as over 100 µM, the TGI [2] is reported as over 100 µM and the TGI [8] is reported as over 100 µM. The TGI [3] was over 100 µM, the TGI [4] was over 100 µM and the TGI [9] was over 100 µM. The TGI [5] was over 100 µM, the TGI [6] was over 100 µM and the TGI [7] was over 100 µM.

For `CC1(C(=O)O)CCC[C@@]2(C)C1CC[C@@]1(C)c3cocc3CCC21` (some centres not stated), the TGI [1] was over 100 µM, the TGI [2] was over 100 µM and the TGI [8] was over 100 µM. It also gave a TGI [3] of over 100 µM, a TGI [4] of over 100 µM and a TGI [9] of over 100 µM. For the same compound, the TGI [5] was over 100 µM, the TGI [6] was over 100 µM and the TGI [7] was over 100 µM.

For `Cc1ccsc1C(=S)Nc1ccc(Cl)c(/C=N/OC(C)(C)C)c1`, the TGI [1] was 57.2 µM, the TGI [2] was 33.7 µM and the TGI [8] was over 100 µM. The TGI [3] was over 100 µM, the TGI [4] was 75.7 µM and the TGI [9] was over 100 µM. For the same compound, the TGI [5] was 74.7 µM, the TGI [10] was over 100 µM and the TGI [7] was over 100 µM.

`Clc1ccccc1C(SCc1ccccc1)SCc1ccccc1` was tested, and the TGI [1] was over 100 µM, the TGI [2] was over 100 µM and the TGI [8] was over 100 µM. For the same compound, the TGI [3] was over 100 µM, the TGI [4] was over 100 µM and the TGI [5] was over 100 µM. For the same compound, the TGI [10] was over 100 µM, the TGI [6] was over 100 µM and the TGI [7] was over 100 µM.

With `CNC(=S)OCCC(C)CCCC(C)C` (configuration not stated) the TGI [1] was 30.9 µM, the TGI [8] was 30.7 µM and the TGI [3] was 23.9 µM. The TGI [4] was 32.8 µM, the TGI [9] was 41.6 µM and the TGI [5] was 23.6 µM. It also gave a TGI [6] of 40.6 µM and a TGI [7] of 40.7 µM.

Compound `CC(C)=CCC\C(C)=C/C=C/C(C)=C\C=C\C(C)=C/C=C/C=C(C)\C=C\C=C(C)/C=C/C=C(/C)CCC=C(C)C` has a TGI [1] of over 100 µM, a TGI [2] of over 100 µM and a TGI [8] of over 100 µM. For the same compound, the TGI [3] was over 100 µM, the TGI [4] was over 100 µM and the TGI [9] was over 100 µM. It also gave a TGI [5] of over 100 µM, a TGI [6] of over 100 µM and a TGI [7] of over 100 µM.

Work on `O=C(CCNC12CC3CC(CC(C3)C1)C2)c1ccccc1` yielded a TGI [1] of 31.6 µM, a TGI [2] of 34.9 µM and a TGI [8] of over 100 µM. It also gave a TGI [3] of 71.7 µM, a TGI [4] of 88.7 µM and a TGI [5] of 28.1 µM. The TGI [10] was 32 µM, the TGI [6] was 65.3 µM and the TGI [7] was 39.2 µM.

`COC(=O)C1(C(C)C)CCc2c(OC)ccc(OC)c2C1=O` (configuration not stated) gave a TGI [1] of over 100 µM, a TGI [2] of over 100 µM and a TGI [8] of over 100 µM. It also gave a TGI [3] of over 100 µM, a TGI [4] of over 100 µM and a TGI [9] of over 100 µM. For the same compound, the TGI [5] was over 100 µM, the TGI [10] was over 100 µM and the TGI [7] was over 100 µM.

In the case of `COC(=O)c1ccccc1NC(=O)C(=O)Cc1nc2c3c(ccc2[nH]c1=O)C(=O)c1ccccc1C3=O`, the TGI [1] is reported as 74.2 µM, the TGI [2] is reported as over 100 µM and the TGI [8] is reported as 67.9 µM. It also gave a TGI [3] of over 100 µM, a TGI [4] of over 100 µM and a TGI [9] of over 100 µM. The TGI [10] was 35.7 µM, the TGI [6] was over 100 µM and the TGI [7] was over 100 µM.

Compound `FC(F)(F)c1cccc(Nc2nc(-c3ccccc3)nc3ncccc23)c1` has a GI50 [1] of 2.51 µM, a TGI [1] of 6.51 µM and a GI50 [2] of 4.07 µM. For the same compound, the TGI [2] was 13.9 µM, the GI50 [8] was 6.76 µM and the TGI [8] was 44.3 µM. It also gave a GI50 [3] of 13.2 µM, a TGI [3] of 90.4 µM and a GI50 [4] of 3.3 µM. It also gave a TGI [4] of 11.4 µM, a GI50 [9] of 11 µM and a TGI [9] of 24 µM. For the same compound, the GI50 [5] was 2.51 µM, the TGI [5] was 6.93 µM and the GI50 [6] was 7.85 µM. For the same compound, the TGI [6] was 31.3 µM.

`O=C(Nc1nc2ccc([N+](=O)[O-])cc2s1)C(=O)C(C1OC(=O)c2ccccc21)[N+](=O)[O-]` (configuration not stated) showed a TGI [1] of over 100 µM, a TGI [2] of over 100 µM and a TGI [8] of over 100 µM. The TGI [3] was over 100 µM, the TGI [4] was over 100 µM and the TGI [9] was over 100 µM. It also gave a TGI [5] of over 100 µM, a TGI [6] of over 100 µM and a TGI [7] of over 100 µM.

`CCN1CCN(Cc2ccc(NC(=O)c3cccc(C#Cc4cccc5[nH]nc(N)c45)c3)cc2C(F)(F)F)CC1` was tested, and the GI50 [1] was 0.402 µM, the TGI [1] was 1.32 µM and the GI50 [2] was 0.185 µM. For the same compound, the TGI [2] was 1.28 µM, the GI50 [8] was 0.62 µM and the TGI [8] was 2.01 µM. For the same compound, the GI50 [3] was 0.685 µM, the TGI [3] was 2.07 µM and the GI50 [4] was 0.18 µM. It also gave a TGI [4] of 0.933 µM, a GI50 [9] of 0.802 µM and a TGI [9] of 2.2 µM. It also gave a GI50 [5] of 0.0979 µM, a TGI [5] of 1.04 µM and a GI50 [6] of 0.184 µM. It also gave a TGI [6] of 0.89 µM, a GI50 [7] of 0.778 µM and a TGI [7] of 3.96 µM.

`CCN(CC)N=Nc1c(C(N)=O)n[nH]c1C` showed a TGI [1] of over 100 µM, a TGI [2] of over 100 µM and a TGI [8] of over 100 µM. For the same compound, the TGI [4] was over 100 µM, the TGI [9] was 97.9 µM and the TGI [10] was over 100 µM. The TGI [6] was over 100 µM and the TGI [7] was 54.5 µM.

`CCOC1Oc2ccccc2C(=O)/C1=C/Nc1ccc(C(C)=O)cc1` (configuration not stated) was tested, and the GI50 [1] was 6.56 µM, the TGI [1] was 25.4 µM and the GI50 [2] was 55.2 µM. For the same compound, the TGI [2] was over 100 µM, the GI50 [8] was 33.7 µM and the TGI [8] was over 100 µM. It also gave a GI50 [3] of 19.5 µM, a TGI [3] of 48.3 µM and a GI50 [4] of 18.6 µM. It also gave a TGI [4] of 44 µM, a GI50 [9] of 44.4 µM and a TGI [9] of over 100 µM. The GI50 [10] was 27.1 µM, the TGI [10] was 87.3 µM and the GI50 [6] was 40.6 µM. It also gave a TGI [6] of over 100 µM, a GI50 [7] of 19.2 µM and a TGI [7] of 62.2 µM.

With `O=C(O)CCC(NC(=O)c1ccc(Nc2nc3ccccc3nc2-c2cccs2)cc1)C(=O)O` (configuration not stated) the TGI [1] was over 100 µM, the TGI [8] was over 100 µM and the TGI [3] was over 100 µM. It also gave a TGI [4] of over 100 µM, a TGI [9] of over 100 µM and a TGI [5] of over 100 µM. For the same compound, the TGI [10] was over 100 µM, the TGI [6] was over 100 µM and the TGI [7] was over 100 µM.

Work on `COC(=O)/C=C1\S/C(=N\NC(=O)c2cc3ccc2/C=C\c2ccc(cc2)/C=C\3)N(c2ccccc2)C1=O` yielded a GI50 [1] of 2 µM, a TGI [1] of 4.38 µM and a GI50 [8] of 3.09 µM. The TGI [8] was 11.2 µM, the GI50 [3] was 1.92 µM and the TGI [3] was 3.84 µM. It also gave a GI50 [4] of 1.78 µM, a TGI [4] of 3.29 µM and a GI50 [9] of 3.55 µM. It also gave a TGI [9] of 75.3 µM, a GI50 [5] of 2.7 µM and a TGI [5] of over 100 µM. The GI50 [10] was 4.89 µM, the TGI [10] was over 100 µM and the GI50 [6] was 5.44 µM. For the same compound, the TGI [6] was over 100 µM.
